Consider one compound from patent publication US9594073B2, “Test solvent for evaluating the compatibility of biologically active substances and graft copolymers” (ABBVIE DEUTSCHLAND GMBH & CO KG, priority 2010, dated 2017).

The data set is described as follows: Homogeneity of melt extrudates with Soluplus (optical microscope). The format is physicochemical. On the procedure: Samples were prepared by melt extrusions of mixtures consisting of fenofibrate or ibuprofen and Soluplus®. […] Aliquots of 50 g of the powdery mixtures were extruded on a laboratory extruder (Rondol l (10 mm) Rondol Technology Ltd. Staffordshire GB) using a conveying screw equipped with two kneading elements at about 120° C. and 100 rpm. The powdery mixtures were continuously metered in via a vibratory feeder. The extrudate exiting the extruder was passed through a calendar with two smooth rollers arranged at a gap distance of 0.4 mm. Calendered sheets having a thickness of about 1 mm were thus obtained. Pieces of 2 mm×2 mm were cut out from the sheets and homogeneity of the pieces was examined using an optical microscope (Leica DMLM).

Regarding `CC(C)Cc1ccc(C(C)C(=O)O)cc1` (centres unmarked) [ibuprofen], the “Amount of crystals in extrudate” value runs as follows: (ibuprofen concentration 40 wt %) “no crystals”; (ibuprofen concentration 45 wt %) “no crystals”; (ibuprofen concentration 50 wt %) “low”; (ibuprofen concentration 55 wt %) “moderate”; (ibuprofen concentration 60 wt %) “high”.
